The values below come from PMC3610763 (Chemical research in toxicology, 2012).

For series [1] the following is noted: in vivo, cited from earlier work.
For series [2] the following is noted: human, in vivo, po; cited from earlier work.
For series [3] the following is noted: rat, in vivo, po, 30 mg/kg; cited from earlier work.
Series [4] concerns individual recombinant human P450 enzymes.
In series [5] the test system is human liver microsomes.

For `COc1cc(CNC(=O)CCCC/C=C/C(C)C)ccc1O` [Capsaicin, trans-8-methyl-N-vanillyl-6-nonenamide], the “estimated T1/2” value in series [1] (human) is reported as 1.6 h. Besides, in series [1], the “time within which capsaicin was cleared in most patients” value is reported as ≤ 4.5 h. Moreover, in series [2], the AUC is ~ 1.7 ng*h/mL, the T1/2 was 0.42 h and the Tmax is ~ 0.78 h. In addition, in series [3], the “absorption from the intestine” value is on record as 94%, the “amount found in intestine” value was ~ 1,060 mg/tissue, the “amount found in kidney” value is ~ 7 mg/tissue and the “amount found in liver” value is ~ 45 mg/tissue. Also, the peak serum concentration in series [3] is on record as 6.2 µM.
`COc1cc(CNC(=O)CCCC/C=C/C(C)C)cc(-c2cc(CNC(=O)CCCC/C=C/C(C)C)cc(OC)c2O)c1O` [Dimer, 5,5’-Dicapsaicin]: the “P450 enzymes producing the conjugate/dimer from capsaicin” value in series [4] was “CYP2D6, 2C9, and 2C8”.
On to `CCCCCCCCC(=O)NCc1ccc(O)c(O)c1` [N-(3,4-dihydroxybenzyl)nonanamide], for which the “formation of G3 from the analogue, versus capsaicin” value in series [5] is “absent”.
Turning to `CCCCCCCCC(=O)NCc1ccc(OC)c(OC)c1` [N-(3,4-dimethoxybenzyl)nonanamide], in series [5], the “formation of G3 from the analogue, versus capsaicin” value is given as “absent” and the “formation of conjugates equivalent to G1/G2 from the analogue, versus capsaicin” value was “diminished”.
For `CCCCCCCCC(=O)NCc1ccc(OC)c(O)c1` [N-(3-hydroxy-4-methoxybenzyl)nonanamide], in that order: “absent” and “unchanged”.
For `CCCCCCCCC(=O)NCc1cccc(OC)c1` [N-(3-methoxybenzyl)nonanamide], in that order: “absent” and “diminished”.
For `CCCCCCCCC(=O)NCc1ccc(O)cc1` [N-(4-hydroxybenzyl)nonanamide], in that order: “greater” and “increased”.
Consider `CCCCCCCCC(=O)NCc1ccccc1` [N-benzylnonanamide], for which, in series [5], the “formation of G3 from the analogue, versus capsaicin” value is recorded as “absent” and the “formation of conjugates equivalent to G1/G2 from the analogue, versus capsaicin” value is listed as “diminished”.
`CCCCCCCCC(=O)NCc1ccc(O)c(OC)c1` [nonivamide, N-vanillylnonanamide]: in series [5], the “G4 and G5 formation from the analogue” value is reported as “roughly equivalent to capsaicin”; the “formation of G3 from the analogue, versus capsaicin” value is “comparable to capsaicin”; the “formation of conjugates equivalent to G1/G2 from the analogue, versus capsaicin” value is listed as “unchanged”.
